Assays:
[1] = Body weight and fasted plasma metabolic parameters of ApoE-deficient mice fed high-fat diet with or without ABA; type: in vivo
Procedure: Five-week old ApoE −/− mice (n=40) were housed at the animal facilities at Virginia Polytechnic Institute and State University in a room maintained at 75° F., with a 12:12 h light-dark cycle starting from 6:00 AM. All experimental procedures were approved by the Institutional Animal Care and Use Committee of Virginia Polytechnic Institute and State University and met or exceeded requirements of the Public Health Service/National Institutes of Health and the Animal Welfare Act. Mice were fed a high saturated fat (AIN-93G-based) diet containing 19.6% fat and 0.2% total cholesterol and obtaining 40.1% of Kcal from fat (4.4 Kcal/g) with or without 100 mg/kg of a racemic ABA mixture (Guri et al., J. Nutr. Biochem. 19:216-28, 2008). Systolic blood pressure was assessed on days 0, 28, 56, and 72. On day 84, fasted mice (12 h) were sacrificed by carbon dioxide asphyxiation and blood was withdrawn through cardiac puncture. Glucose concentrations of whole blood were assessed with an Accu-Chek® Glucometer (Roche, Indianapolis, Ind.) and plasma insulin was measured through insulin ELISA (Millipore, Billerica, Mass.). Aortas were collected for analysis of immune cell infiltration, histological evaluation of atherosclerotic lesions, and gene expression analyses.
Plasma cholesterol and triglyceride levels were measured using kits from Raichem (San Diego, Calif.) adapted for microtiter plate assays. Plasma free fatty acids were measured using the NEFA-HR(2) kit from Wako. Fast performance liquid chromatography (FPLC) separation of plasma lipoproteins was performed on a Superose 6 column using buffer containing 0.15M NaCl, 0.01M Na2HPO4 and 1 mM EDTA at a flow rate of 0.5 ml/min. Forty 0.5 ml fractions were collected and cholesterol was measured in fractions 10-40. Fractions 15-20 contain VLDL, fractions 21-27 contain LDL and fractions 28-34 contain HDL.

[2] = test system: monocyte chemoattractant protein 1 (MCP-1); experiment: Aortic gene expression by real-time RT-PCR: MCP-1; type: in vivo, mice; details: P=0.10
Procedure: (§1) FIG. 6 are graphs showing that ABA decreases immune cell infiltration in aortas of ApoE−/− mice and reduces pro-inflammatory gene expression. ApoE −/− mice were fed high fat diets created with or without 100 mg/kg diet racemic abscisic acid (ABA). (A) Infiltration of F4/80^+CD11b^+ macrophages and CD4^+ T-cells into the aorta were assessed with flow cytometry. Gene expression in the aorta of pro-inflammatory markers (B) vascular cell adhesion molecule 1 (VCAM-1), (C) monocyte chemoattractant protein 1 (MCP-1), (D) E-selectin, (F) peroxisome proliferator-activated receptor γ (PPAR γ), and (G) CD36 were measured as a ratio to the housekeeping gene β-actin. (H) MCP-1 protein concentrations (pg/mL) were measured by ELISA. Data were analyzed as a completely randomized design.
Total RNA was isolated from aortas using the RNA isolation Minikit (Qiagen) according to the manufacturer's instructions. […] Each gene amplicon was purified with the MiniElute PCR Purification Kit (Qiagen) and quantitated on an agarose gel by using a DNA mass ladder (Promega). […]
Complementary DNA (cDNA) concentrations for genes of interest were examined by real-time quantitative PCR using an iCycler IQ System and the iQ SYBR green supermix (Bio-Rad). […] Results are presented as a starting quantity of target cDNA (picograms) per microgram of total RNA. […]

[3] = test system: F4/80+CD11b+ macrophages and CD4+ T-cells; experiment: Flow cytometry of immune cell infiltration into the aortic root; type: in vivo, mice; details: day 84, flow cytometry
Procedure: as §1
After euthanization, mouse hearts were perfused with PBS for 2 minutes. Aortas were then extracted. Aortic roots were cut into small […] pieces, and placed in 1× Hanks Balanced Sodium Salt Solution (HBSS) containing 0.2% type II collagenase (Worthington Biochemicals). After digestion at 37° C. for 1 hour, samples were sent through a […] nylon filter (BD), washed with HBSS, and centrifuged at 1200 rpm for 10 min. Cell suspensions were then resuspended in FACS buffer and enumerated by using a Z1 Single Particle Counter (Beckman Coulter). […]

pancreatic β-cells = details: Bruzzone et al., 2008; cited from earlier work
[4] = ApoE-deficient mice, high-fat diet, 84 days
[5] = fasted plasma, day 84, ABA 100 mg/kg diet, least square mean ± standard error
[6] = fasted plasma, day 84, ABA 100 mg/kg diet, least square mean ± standard error, * P<0.05 vs control

Structure (SMILES): CC1=CC(=O)CC(C)(C)C1(O)/C=C/C(C)=C\C(=O)O (racemic) [ABA, abscisic acid]
- Body Weight ([1]; ApoE-deficient mice, high-fat diet with ABA 100 mg/kg, day 84, least square mean ± standard error): 30.8 ± 0.63 g
- Effect on body weights vs control diet [1, 4]: no significant effect
- Effect on insulin vs control diet [1, 4]: no significant effect
- Effect on plasma glucose vs control diet [1, 4]: no significant effect
- Effect on plasma non-esterified fatty acid concentration vs control diet [1, 4]: significantly raise
- Effect on plasma triglyceride (TG) concentration vs control diet [1, 4]: significantly raise
- Effect on total cholesterol levels vs control diet [1, 4]: no significant effect
- Glucose ([1]; fasted (12 h), day 84, ABA 100 mg/kg diet, least square mean ± standard error): 194.6 ± 11.9 mg/dL
- Cholesterol [1, 5]: 339.0 ± 25.1 mg/dL
- Insulin [1, 5]: 0.432 ± 0.05 ng/mL
- NEFAs (non-esterified fatty acids) [1, 6]: 2.05 ± 0.17* mequiv./mL
- TGs (triglycerides) [1, 6]: 136.1 ± 12.3* mg/dL
- HOMA-IR (homeostasis model assessment-insulin resistance) ([1]; fasted, day 84, ABA 100 mg/kg diet, least square mean ± standard error): 4.93 ± 0.76
- MCP-1 mRNA expression in the aortic roots vs control [2]: reduced, though not to statistical significance
- Recruitment of CD4+ T-cells in the aortic root vs control [3]: significantly reduces recruitment
- Recruitment of F4/80+CD11b+ macrophages in the aortic root vs control [3]: significantly reduces recruitment
- Intracellular levels of cAMP (pancreatic β-cells): increases intracellular levels of cAMP

Source: patent US20110054033A1, “METHODS OF USING ABSCISIC ACID FOR AMELIORATING HYPERTENSION AND VASCULAR INFLAMMATION” (Virginia Tech Intellectual Properties, Inc., priority 2009, published 2011)
